Measurements taken from patent US10704075B2, “Method for determining the reaction of a microorganism to its exposure to a chemical compound” (bioMérieux, priority 2015, dated 2020).
Converted amounts (≈) assume the structure as drawn.

Experiments:
[1] = system: Staphylococcus aureus strain ATCC 25923 called "SA44"; assay: Raman spectroscopy analysis of individual bacteria exposed to an antibiotic (method of the invention), strain SA44; assay type: cell-based
Experimental: (§1) The retained conditioning device is constituted of two fluidic chambers and two antibiotic concentrations are tested: c0: “Without antibiotic” and “Resistance test”.
Let c1 be the concentration of oxacillin: c1=8 μg/mL which corresponds to multiplying by a factor of 32 the concentration of 0.25 μg/mL which corresponds to the clinical breakpoint as defined by the EUCAST. The objective of this test is to determine whether the bacterial strain is considered as resistant according to the definitions provided by the EUCAST.
A solution containing the bacteria to be tested is used as a test sample. This solution is obtained by suspending 5.10^7 CFU/mL in order to have a concentration potentially encountered in a clinical sample, for example a urine collection. The bacteria can come from a culture in a liquid medium or a culture in agar medium in Petri dish. This bacteria solution is brought into contact with the interface I of the device functionalized by adsorbing polyethylenimine (PEI) (generic capture). After a capture time of 10 minutes allowing the bacteria to come into contact with the functionalization, the interface I is washed with a water solution, this optional step allowing to eliminate the surplus of uncaptured bacteria still in solution. […]

[2] = system: Staphylococcus aureus strain ATCC 25923 called "SA44"; assay: Reference methods (bioMérieux ETEST OX 256 or VITEK card P631), strain SA44; assay type: cell-based
[3] = system: Escherichia coli strain ATCC 25922 called "EC10"; assay: Raman spectroscopy analysis of individual bacteria exposed to an antibiotic (method of the invention), strain EC10; assay type: cell-based
Experimental: as §1
Let c1 be the concentration of gentamicin: c1=8 μg/mL, which corresponds to the doubling of the concentration 4 μg/mL corresponding to the clinical breakpoint as defined by the EUCAST. The objective of this test is to determine whether the bacterium is considered as resistant according to the definitions provided by the EUCAST.
A solution containing the bacteria to be tested is used as a test sample. This solution is obtained by suspending 5.10^7 CFU/mL in order to have a concentration potentially encountered in a clinical sample, for example a urine collection. This bacteria solution is brought into contact with the interface I of the device functionalized by adsorbing polyethylenimine (PEI) (generic capture). After a capture time of 10 minutes allowing the bacteria to come into contact with the functionalization, the interface I is washed with a water solution, this optional step allowing to eliminate the surplus of uncaptured bacteria still in solution. The physiological medium retained in this example is constituted of a poorly enriched mixture of Bouillon TSB-T Trypcase Soy broth (for example of the reference 42100 of bioMérieux) and of PBS 10× (for example obtained from the PBS tablets of the reference A9162, 0100 of the brand AppliChem) in a 1:9 ratio. After dividing this physiological medium into two fractions, an amount of gentamicin (for example of the reference G1397-10ML of Sigma-Aldrich) is added respectively to each of these fractions, allowing to obtain a different concentration of gentamicin c0 or c1. The solutions of concentrations c0 and c1 produced accordingly are respectively introduced into the chambers C0 or C1. The bacteria captured directly from the sample on the surface I are thus exposed, in a suitable medium, to a different antibiotic concentration depending on the chamber in which they are present.
The device is then heated in order to reach a temperature of 37° C. for two hours and then placed in measurement position on the micro-spectrometer. The marking of the captured bacteria is carried out by an automatic procedure based on image analysis, by a conventional procedure for detecting particles, acquired by means of the micro-spectrometer camera and a suitable light source. This marking allows acquiring automatically a series of Raman spectra (S0 and S1, respectively) acquired on individual bacteria present in each chamber C0 and C1. The number of spectra to be acquired for constituting a dataset depends on the level of requirement on the performances of the tests to be carried out. […]

[4] = system: Escherichia coli strain ATCC 25922; conditions: cited from earlier work
[5] = system: Escherichia coli strain ATCC 25922 called "EC10"; assay: Reference methods (bioMérieux ETEST and VITEK card N233), strain EC10; assay type: cell-based; conditions: for phenotype according to the EUCAST / reference: from reference MIC
Description: In order to illustrate the performances obtained accordingly, the average score obtained for all the results that would be obtained with a combination of 5 spectra per concentration (N=5) out of a total set of total acquired spectra of 294 spectra (M=294) is shown in FIG. 4. […] The score indicates the percentage of the test samples that are assigned to a given class by the classifier described above. […] The strain can therefore be described as sensitive according to the invention with a high reliability on the basis of only a few individual bacteria analyses. The result is consistent with the reference methods [BioMérieux products ETEST® (antimicrobial susceptibility testing kit) GM 256 (ref. 412368) and VITEK® card N233 (Gram Negative Susceptibility card; ref. 413117)] which give as a result a MIC=1 μg/mL, which confirms that the bacterium is not resistant according to the EUCAST, its MIC not being strictly above the threshold defined by this organism.
A MIC comprised between 4 μg/mL and 8 μg/mL can therefore be assigned to this strain according to the assays. This variability to a dilution factor is very frequent in this type of assay, the EUCAST indicates, for example, ranges of MIC variations of [2-8]μg/mL for this strain ATCC 25922 during quality controls of the MIC disc diffusion tests, and is therefore consistent with expected results.
The detection of an effect for concentrations greater than 0.005 μg/mL is thus observed. An antibiotic effect of ciprofloxacin can therefore be assigned to the strain tested for concentrations greater than 0.005 μg/mL. This test would therefore define a concentration of 0.005 μg/mL as a MIC. A new test could possibly be performed by adding the lowest concentrations between 0 and 0.005 μg/mL if necessary. […] A test performed with a suitable etest (bioMérieux) allows measuring a MIC of 0.008 μg/mL which confirms that the obtained result is in accordance with the reference methods [BioMérieux products ETEST® CI 32 (antimicrobial susceptibility testing kit; ref. 412311) and VITEK® card N233 (Gram Negative Susceptibility card; ref. 413117)].

[6] = system: E. coli; conditions: cited from earlier work
[7] = system: Escherichia coli strain ATCC 35421 called "EC21"; assay: Raman spectroscopy analysis of individual bacteria exposed to an antibiotic (method of the invention), strain EC21; assay type: cell-based
Experimental: A test identical to that of Example 1 is conducted on another strain of Escherichia coli, the strain ATCC 35421 called “EC21” allows confirming the discriminatory nature of the measurement.
In order to illustrate the discriminating power of this method, the same test performed for a strain of Escherichia coli ATCC 35421 resistant to amoxicillin called “EC21” is also shown.
A solution containing the bacteria to be tested, EC10 or EC21, is used as test sample. This solution is obtained by suspending 5 10^7 CFU/mL in water in order to have a concentration potentially encountered in a clinical sample, for example a urine collection. This bacteria solution is distributed in 5 filter tubes (for example MICROCON (Centrifugal filters) YM100 from Millipore) at a rate of 150 μL per tube. A sufficient amount is added to each of these tubes for the final 250 μL of physiological medium allowing the growth constituted in this example of a mixture of PBS of final concentration of 1× (obtained from the PBS tablets of the reference A9162,0100 of the brand AppliChem), of a nutrient medium TSB 0.1× (for example obtained from Bouillon TSB-T […] A8523-10ML of Sigma-Aldrich) as follows: • c0=0 μg/mL • c1=2 μg/mL • c2=4 μg/mL • c3=8 μg/mL • c4=16 μg/mL
The 5 tubes obtained accordingly are incubated for 2 hours at 37° C. with stirring. Centrifugation at 1200 g for 8 minutes using a centrifuge adapted to the used containers (for example the model 8415C of the brand Eppendorf) then allows retrieving a bacterial pellet on the filter portion of each tube and eliminating the medium. The bacterial pellets are respectively resuspended in water in order to carry out a washing before being again pelletized by centrifugation (1200 g for 10 minutes) always on the filter portion of the tube. These pellets are distributed on a glass slide of the Marienfield type constituting the interface I (not functionalized in this configuration) by means of a swab in corresponding chambers noted C0 to C4. […]

[8] = system: Escherichia coli strain ATCC 35421 called "EC21"; assay: Reference methods, strain EC21; assay type: cell-based; conditions: for phenotype according to the EUCAST / reference: from reference MIC
Experimental: A MIC>8 μg/mL can be assigned to this strain with this test, which is also consistent with the results obtained by the reference method.

Molecule: Cc1onc(-c2ccccc2)c1C(=O)N[C@@H]1C(=O)N2[C@@H]1SC(C)(C)[C@@H]2C(=O)O [oxacillin]
- sensitivity phenotype according to the invention ([1]; Raman test at 8 μg/mL): sensitive
- percentage of test samples classified as "ATB effect" ([1]; oxacillin 8 μg/mL, 2 hours at 37° C., N=9, M=337, FIG. 12 (liquid medium cultures)): greater than 97%
- MIC ([2]; Staphylococcus aureus, ATCC25923, ETEST OX 256 or VITEK card P631): 0.25 µg/mL (≈ 0.623 µM)
- phenotype according to the EUCAST / reference ([2]; from reference MIC): not resistant

Molecule: O=C(O)c1cn(C2CC2)c2cc(N3CCNCC3)c(F)cc2c1=O [ciprofloxacin]
- concentrations at which an antibiotic effect is detected ([3]; Raman, distance to gentamicin reference signature, tested 0, 0.005, 0.015, 0.064 μg/mL): greater than 0.005 μg/mL
- EUCAST known MIC [4]: 0.008 µg/mL

Molecule: gentamicin
- MIC (reference methods, MICREF) ([5]; ETEST / VITEK card N233): 1 µg/mL
- phenotype according to the EUCAST / reference [5]: not resistant
- sensitivity phenotype according to the invention ([3]; Raman test at 8 μg/mL): sensitive
- percentage of test samples classified as "ATB effect" ([3]; gentamicin 8 μg/mL, 2 hours at 37° C., N=5 spectra per sample, M=294, SVM classifier): 97.1%
- typical MIC, or epidemiological cut-off of the species [6]: 2 μg/mL
- percentage of performed tests that do not show a characteristic effect profile of the antibiotic agent ([7]; gentamicin 8 μg/mL, N=5, M=133): 100%
- phenotype according to the EUCAST / reference [8]: resistant
- MIC (reference methods, MICREF) ([8]; reference methods): > 256 µg/mL

Molecule: CC1(C)S[C@@H]2[C@H](NC(=O)[C@H](N)c3ccc(O)cc3)C(=O)N2[C@H]1C(=O)O [amoxicillin]
- MIC ([5]; Escherichia coli, ATCC25922, read-out: MIC (reference methods, MICREF)): 6 µg/mL
- phenotype according to the EUCAST / reference [5]: sensitive
- MIC ([3]; Escherichia coli, ATCC25922, Raman, 2 hours at 37° C. incubation, read-out: MIC assigned by the method of the invention): 4 to 8 µg/mL (≈ 10.9 to 21.9 µM)
- EUCAST range of MIC variations (acceptable variation range) ([4]; quality control range): 2 to 8 µg/mL
- MIC ([7]; Escherichia coli, ATCC35421, Raman, tested 0, 4 and 8 μg/mL, N=11, read-out: MIC assigned by the method of the invention): > 8 µg/mL
- category assigned to the vast majority of the measured groups ([7]; amoxicillin 4 and 8 μg/mL, N=11, FIG. 7): without ATB effect
- MIC ([8]; Escherichia coli, ATCC35421, read-out: MIC (reference methods, MICREF)): 256 µg/mL (≈ 701 µM)
- phenotype according to the EUCAST / reference [8]: resistant
